Reference: patent publication US20240158446A1, “CYCLIC COMPOUND HAVING SELECTIVE INHIBITORY ACTION ON KRAS OVER HRAS AND NRAS” (CHUGAI SEIYAKU KABUSHIKI KAISHA, priority 2021, published 2024)

What was measured:
[1] = target: GDP-bound NRAS wild-type protein (Homo sapiens, UniProt P01111); assay: Binding to NRAS by surface plasmon resonance (SPR), Single Cycle Kinetics; conditions: SPR, GDP-bound NRAS wild-type protein vs GDP-bound KRAS wild-type protein
[2] = target: GDP-bound HRAS wild-type protein (Homo sapiens, UniProt P01112); assay: Binding to HRAS by surface plasmon resonance (SPR), Single Cycle Kinetics; conditions: SPR, GDP-bound HRAS wild-type protein vs GDP-bound KRAS wild-type protein
[3] = target: GDP-bound KRAS wild-type protein (Homo sapiens, UniProt P01116); assay: Binding to KRAS by surface plasmon resonance (SPR), Single Cycle Kinetics; conditions: SPR Single Cycle Kinetics, GDP-bound KRAS wild-type protein, 1:1 binding model; read-out: KRAS KD
Chain of GDP-bound KRAS wild-type protein (P01116 whole entry): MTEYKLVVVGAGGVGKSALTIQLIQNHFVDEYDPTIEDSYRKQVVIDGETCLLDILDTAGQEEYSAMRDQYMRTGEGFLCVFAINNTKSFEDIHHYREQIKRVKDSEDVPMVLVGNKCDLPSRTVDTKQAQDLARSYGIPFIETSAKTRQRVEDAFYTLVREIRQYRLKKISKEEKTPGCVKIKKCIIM

Chain of GDP-bound HRAS wild-type protein (P01112 whole entry): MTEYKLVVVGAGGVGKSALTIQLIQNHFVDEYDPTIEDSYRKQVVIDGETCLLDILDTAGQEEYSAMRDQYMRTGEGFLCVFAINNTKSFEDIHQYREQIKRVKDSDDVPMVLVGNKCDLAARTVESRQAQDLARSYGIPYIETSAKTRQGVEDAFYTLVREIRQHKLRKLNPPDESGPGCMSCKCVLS
Chain of GDP-bound NRAS wild-type protein (P01111 whole entry): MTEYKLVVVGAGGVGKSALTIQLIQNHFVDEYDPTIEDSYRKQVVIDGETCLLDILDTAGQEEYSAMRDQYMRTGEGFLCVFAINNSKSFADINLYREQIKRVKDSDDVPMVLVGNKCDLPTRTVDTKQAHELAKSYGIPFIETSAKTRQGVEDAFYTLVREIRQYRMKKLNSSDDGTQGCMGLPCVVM

SMILES	NRAS/KRAS (ratio of KD value with respect to NRAS to KD value with respect to KRAS) [1]	HRAS/KRAS (ratio of KD value with respect to HRAS to KD value with respect to KRAS) [2]	Kd [3] [nM]
CC[C@H](C)[C@@H]1NC(=O)[C@H](CC(C)C)N(C)C(=O)C[C@@H](C(=O)N2CCOCC2)N(C)C(=O)[C@H](C2CCCC2)N(C)C(=O)C2(CCCC2)NC(=O)[C@@H]2CC(F)(F)CN2C(=O)[C@H](CCc2cc(F)c(C(F)(F)F)c(F)c2)NC(=O)CN(C)C(=O)[C@H](Cc2ccc(C(F)(F)F)cc2)N2CCCCC[C@@H](C2=O)N(C)C(=O)CN(C)C1=O [PP0491]	B (a compound having 3 or more and less than 10 is denoted as B)	B (a compound having 3 or more and less than 10 is denoted as B)	1.1
CCO[C@@H]1C[C@H]2C(=O)NC3(CCCC3)C(=O)N(C)[C@@H](C3CCCC3)C(=O)N(C)[C@H](C(=O)N3CCOCC3)CC(=O)N(C)[C@@H](CC(C)C)C(=O)N[C@@H]([C@@H](C)CC)C(=O)N(C)CC(=O)N(C)[C@H]3CCCCCN(C3=O)[C@@H](Cc3ccc(C(F)(F)F)cc3)C(=O)N(C)CC(=O)N[C@@H](CCc3cc(F)c(C(F)(F)F)c(F)c3)C(=O)N2C1 [PP0492]	B (a compound having 3 or more and less than 10 is denoted as B)	B (a compound having 3 or more and less than 10 is denoted as B)	1.2
CC[C@H](C)[C@@H]1NC(=O)[C@H](CC(C)C)N(C)C(=O)C[C@@H](C(=O)N2CCOCC2)N(C)C(=O)[C@H](C2CCCC2)N(C)C(=O)C2(CCCC2)NC(=O)[C@@H]2CC(=O)CN2C(=O)[C@H](CCc2cc(F)c(C(F)(F)F)c(F)c2)NC(=O)CN(C)C(=O)[C@H](Cc2ccc(C(F)(F)F)cc2)N2CCCCC[C@@H](C2=O)N(C)C(=O)CN(C)C1=O [PP0493]	B (a compound having 3 or more and less than 10 is denoted as B)	B (a compound having 3 or more and less than 10 is denoted as B)	2
CC[C@H](C)[C@@H]1NC(=O)[C@H](CC(C)C)N(C)C(=O)C[C@@H](C(=O)N2CCOCC2)N(C)C(=O)[C@H](C2CCCC2)N(C)C(=O)C2(CCCC2)NC(=O)[C@@H]2C[C@H](OC)CN2C(=O)[C@H](CCc2cc(F)c(C(F)(F)F)c(F)c2)NC(=O)CN(C)C(=O)[C@H](Cc2ccc(C(F)(F)F)cc2)N2CCCCC[C@@H](C2=O)N(C)C(=O)CN(C)C1=O [PP0495]	A (a compound having 10 or more and less than 20 is denoted as A)	B (a compound having 3 or more and less than 10 is denoted as B)	5.1
CC[C@H](C)[C@@H]1NC(=O)[C@H](CC(C)C)N(C)C(=O)C[C@@H](C(=O)N2CCOCC2)N(C)C(=O)[C@H](C2CCCC2)N(C)C(=O)C2(CC2)NC(=O)[C@@H]2CCCN2C(=O)[C@H](CCc2cc(F)c(C(F)(F)F)c(F)c2)NC(=O)CN(C)C(=O)[C@H](Cc2ccc(C(F)(F)F)cc2)N2CCCCC[C@@H](C2=O)N(C)C(=O)CN(C)C1=O [PP0496]	B (a compound having 3 or more and less than 10 is denoted as B)	B (a compound having 3 or more and less than 10 is denoted as B)	4.8
CC[C@H](C)[C@@H]1NC(=O)[C@H](CC(C)C)N(C)C(=O)C[C@@H](C(=O)N2CCOCC2)N(C)C(=O)[C@H](C2CCCC2)N(C)C(=O)C2(CCC2)NC(=O)[C@@H]2CCCN2C(=O)[C@H](CCc2cc(F)c(C(F)(F)F)c(F)c2)NC(=O)CN(C)C(=O)[C@H](Cc2ccc(C(F)(F)F)cc2)N2CCCCC[C@@H](C2=O)N(C)C(=O)CN(C)C1=O [PP0497]	B (a compound having 3 or more and less than 10 is denoted as B)	B (a compound having 3 or more and less than 10 is denoted as B)	0.85
CC[C@H](C)[C@@H]1NC(=O)[C@H](CC(C)C)N(C)C(=O)C[C@@H](C(=O)N2CCOCC2)N(C)C(=O)[C@H](C2CCCC2)N(C)C(=O)C2(CCCCC2)NC(=O)[C@@H]2CCCN2C(=O)[C@H](CCc2cc(F)c(C(F)(F)F)c(F)c2)NC(=O)CN(C)C(=O)[C@H](Cc2ccc(C(F)(F)F)cc2)N2CCCCC[C@@H](C2=O)N(C)C(=O)CN(C)C1=O [PP0498]	B (a compound having 3 or more and less than 10 is denoted as B)	B (a compound having 3 or more and less than 10 is denoted as B)	18
CC[C@H](C)[C@@H]1NC(=O)[C@H](CC(C)C)N(C)C(=O)C[C@@H](C(=O)N2CCOCC2)N(C)C(=O)[C@H](C2CCCC2)N(C)C(=O)C2(CC(F)(F)C2)NC(=O)[C@@H]2CCCN2C(=O)[C@H](CCc2cc(F)c(C(F)(F)F)c(F)c2)NC(=O)CN(C)C(=O)[C@H](Cc2ccc(C(F)(F)F)cc2)N2CCCCC[C@@H](C2=O)N(C)C(=O)CN(C)C1=O [PP0499]	B (a compound having 3 or more and less than 10 is denoted as B)	B (a compound having 3 or more and less than 10 is denoted as B)	1.1
CC[C@H](C)[C@@H]1NC(=O)[C@H](CC(C)C)N(C)C(=O)C[C@@H](C(=O)N2CCOCC2)N(C)C(=O)[C@H](C2CCCC2)N(C)C(=O)C2(CCOCC2)NC(=O)[C@@H]2CCCN2C(=O)[C@H](CCc2cc(F)c(C(F)(F)F)c(F)c2)NC(=O)CN(C)C(=O)[C@H](Cc2ccc(C(F)(F)F)cc2)N2CCCCC[C@@H](C2=O)N(C)C(=O)CN(C)C1=O [PP0502]	A (a compound having 10 or more and less than 20 is denoted as A)	B (a compound having 3 or more and less than 10 is denoted as B)	12
CC[C@H](C)[C@@H]1NC(=O)[C@H](CC(C)C)N(C)C(=O)C[C@@H](C(=O)N2CCOCC2)N(C)C(=O)[C@H](C2CCCC2)N(C)C(=O)C(C)(C)NC(=O)[C@@H]2CCCN2C(=O)[C@H](CCc2cc(F)c(C(F)(F)F)c(F)c2)NC(=O)CN(C)C(=O)[C@H](Cc2ccc(C(F)(F)F)cc2)N2CCCCC[C@@H](C2=O)N(C)C(=O)CN(C)C1=O [PP0503]	A (a compound having 10 or more and less than 20 is denoted as A)	B (a compound having 3 or more and less than 10 is denoted as B)	4.4
CC[C@H](C)[C@@H]1NC(=O)[C@H](CC(C)C)N(C)C(=O)C[C@@H](C(=O)N2CCOCC2)N(C)C(=O)[C@H](C2CCCCC2)N(C)C(=O)C2(CCCC2)NC(=O)[C@@H]2CCCN2C(=O)[C@H](CCc2cc(F)c(C(F)(F)F)c(F)c2)NC(=O)CN(C)C(=O)[C@H](Cc2ccc(C(F)(F)F)cc2)N2CCCCC[C@@H](C2=O)N(C)C(=O)CN(C)C1=O [PP0505]	B (a compound having 3 or more and less than 10 is denoted as B)	B (a compound having 3 or more and less than 10 is denoted as B)	10
CC[C@H](C)[C@@H]1NC(=O)[C@H](CC(C)C)N(C)C(=O)C[C@@H](C(=O)N2CCOCC2)N(C)C(=O)[C@H](CC(F)(F)F)N(C)C(=O)C2(CCCC2)NC(=O)[C@@H]2CCCN2C(=O)[C@H](CCc2cc(F)c(C(F)(F)F)c(F)c2)NC(=O)CN(C)C(=O)[C@H](Cc2ccc(C(F)(F)F)cc2)N2CCCCC[C@@H](C2=O)N(C)C(=O)CN(C)C1=O [PP0506]	B (a compound having 3 or more and less than 10 is denoted as B)	B (a compound having 3 or more and less than 10 is denoted as B)	25
CC[C@H](C)[C@@H]1NC(=O)[C@H](CC(C)C)N(C)C(=O)C[C@@H](C(=O)N(C)C)N(C)C(=O)[C@H](C2CCCC2)N(C)C(=O)C2(CCCC2)NC(=O)[C@@H]2CCCN2C(=O)[C@H](CCc2cc(F)c(C(F)(F)F)c(F)c2)NC(=O)CN(C)C(=O)[C@H](Cc2ccc(C(F)(F)F)cc2)N2CCCCC[C@@H](C2=O)N(C)C(=O)CN(C)C1=O [PP0507]	B (a compound having 3 or more and less than 10 is denoted as B)	B (a compound having 3 or more and less than 10 is denoted as B)	0.94
CC[C@H](C)[C@@H]1NC(=O)[C@H](CC(C)C)N(C)C(=O)C[C@@H](C(=O)N2CCCC2)N(C)C(=O)[C@H](C2CCCC2)N(C)C(=O)C2(CCCC2)NC(=O)[C@@H]2CCCN2C(=O)[C@H](CCc2cc(F)c(C(F)(F)F)c(F)c2)NC(=O)CN(C)C(=O)[C@H](Cc2ccc(C(F)(F)F)cc2)N2CCCCC[C@@H](C2=O)N(C)C(=O)CN(C)C1=O [PP0509]	B (a compound having 3 or more and less than 10 is denoted as B)	B (a compound having 3 or more and less than 10 is denoted as B)	2.4
